The results in this text go back to ChEMBL document CHEMBL2375272, “Identification of RC-33 as a potent and selective σ1 receptor agonist potentiating NGF-induced neurite outgrowth in PC12 cells. Part 2: g-scale synthesis, physicochemical characterization and in vitro metabolic stability” (Bioorg Med Chem, 2013).

A short description of series [1]: Drug metabolism in rat liver S9 fraction assessed as oxidative metabolism after 4 hrs by UPLC-UV-PAD method in presence of NADPH. The format is ADME, subcellular. The following applies: read-out: Drug metabolism.
Series [2] is described as follows: Half life in rat liver S9 fraction by UPLC-UV-PAD method in presence of NADPH. The format is ADME, subcellular.
The nature of series [3]: Drug metabolism in human plasma after 4 hrs by UPLC-UV/PAD method. It counts as ADME, cell-free. Conditions: read-out: Drug metabolism.
Series [4] can be described thus: Drug metabolism in human liver S9 fraction assessed as non-oxidative metabolism after 4 hrs by UPLC-UV-PAD method. The format is ADME, subcellular. Conditions: read-out: Drug metabolism.
A short description of series [5]: Solubility of the compound in water by UV spectrophotometric analysis. The format is physicochemical.
A short description of series [6]: Drug metabolism in dog plasma after 4 hrs by UPLC-UV/PAD method. The format is ADME, cell-free, Canis lupus familiaris. Conditions: read-out: Drug metabolism.
The nature of series [7]: Drug metabolism in rat plasma after 4 hrs by UPLC-UV/PAD method. Conditions: read-out: Drug metabolism. It counts as ADME, cell-free.
Series [8] has as its system Blood. In words: Metabolic stability in mouse blood after 4 hrs by UPLC-UV/PAD method. It counts as ADME, tissue-based.
A short description of series [9]: Solubility of the compound in phosphate buffer at pH 7.4 by UV spectrophotometric analysis. The format is physicochemical.
A short description of series [10]: Drug metabolism in rat liver S9 fraction assessed as non-oxidative metabolism after 4 hrs by UPLC-UV-PAD method. It counts as ADME, subcellular. The following applies: read-out: Drug metabolism.
Series [11] concerns Blood. In words: Metabolic stability in rat blood after 4 hrs by UPLC-UV/PAD method. The format is ADME, tissue-based.
Series [12] can be described thus: Half life in human liver S9 fraction by UPLC-UV-PAD method in presence of NADPH. It counts as ADME, subcellular.
A short description of series [13]: Drug metabolism in human liver S9 fraction assessed as oxidative metabolism after 4 hrs by UPLC-UV-PAD method in presence of NADPH. The format is ADME, subcellular. The following applies: read-out: Drug metabolism.
The nature of series [14]: Solubility of the compound in physiological solution by UV spectrophotometric analysis. The format is physicochemical.

Regarding `CC(CCN1CCCCC1)c1ccc(-c2ccccc2)cc1.Cl` (racemic), the metabolised at 4 h turned out to be 65% in series [1]; 6% in series [3]; 30% in [4]; 25% in series [6]; 6% in [7]; 30% in [10]. In addition, the metabolised at 4 h in [13] was determined as 69%. The half-life in series [2] amounted to 1.89 h; in [12], 2.17 h. The solubility stood at 33 mg/mL in series [5], 32 mg/mL in series [9] and 8 mg/mL in series [14]. Further, the Stability result in the series on Blood [8] and in the series on Blood [11] was “Stable” each time.

The half-life is the time needed for the level to fall by half in the phase considered. What is called solubility is the concentration that dissolves in the medium under given conditions. Low values mean little dissolved substance, high ones much dissolved substance.
